Reference: ChEMBL document CHEMBL1135286, “Synthesis and in vitro evaluation of a novel iodinated resiniferatoxin derivative that is an agonist at the human vanilloid VR1 receptor” (Bioorg Med Chem Lett, 2002)

Legend:
[1] = biological target: T1, Transient receptor potential cation channel subfamily V member 1 (Homo sapiens, UniProt Q8NER1); assay: Induced [Ca2+] influx in Vanilloid receptor subtype 1 expressing HEK 293 cells; type: functional, cell-based, HEK293
[2] = biological target: T1, Transient receptor potential cation channel subfamily V member 1; assay: Percent induction of [Ca2+] influx compared to subsequent 80% maximal capsaicin response in human vanilloid receptor 1 expressing HEK293 cells; type: functional, cell-based
[3] = biological target: T1, Transient receptor potential cation channel subfamily V member 1; assay: Inhibition of [3H]RTX binding to human Vanilloid receptor subtype 1 expressed in HEK293 cells; type: cell-based
[4] = biological target: Transient receptor potential cation channel subfamily V member 1 (Rattus norvegicus) (UniProt O35433); assay: Percent induction of [Ca2+] influx compared to subsequent 80% maximal capsaicin response in rat Vanilloid receptor 1 expressing HEK293 cells; type: functional, cell-based
Chain of Transient receptor potential cation channel subfamily V member 1 (Rattus norvegicus) (O35433 whole entry): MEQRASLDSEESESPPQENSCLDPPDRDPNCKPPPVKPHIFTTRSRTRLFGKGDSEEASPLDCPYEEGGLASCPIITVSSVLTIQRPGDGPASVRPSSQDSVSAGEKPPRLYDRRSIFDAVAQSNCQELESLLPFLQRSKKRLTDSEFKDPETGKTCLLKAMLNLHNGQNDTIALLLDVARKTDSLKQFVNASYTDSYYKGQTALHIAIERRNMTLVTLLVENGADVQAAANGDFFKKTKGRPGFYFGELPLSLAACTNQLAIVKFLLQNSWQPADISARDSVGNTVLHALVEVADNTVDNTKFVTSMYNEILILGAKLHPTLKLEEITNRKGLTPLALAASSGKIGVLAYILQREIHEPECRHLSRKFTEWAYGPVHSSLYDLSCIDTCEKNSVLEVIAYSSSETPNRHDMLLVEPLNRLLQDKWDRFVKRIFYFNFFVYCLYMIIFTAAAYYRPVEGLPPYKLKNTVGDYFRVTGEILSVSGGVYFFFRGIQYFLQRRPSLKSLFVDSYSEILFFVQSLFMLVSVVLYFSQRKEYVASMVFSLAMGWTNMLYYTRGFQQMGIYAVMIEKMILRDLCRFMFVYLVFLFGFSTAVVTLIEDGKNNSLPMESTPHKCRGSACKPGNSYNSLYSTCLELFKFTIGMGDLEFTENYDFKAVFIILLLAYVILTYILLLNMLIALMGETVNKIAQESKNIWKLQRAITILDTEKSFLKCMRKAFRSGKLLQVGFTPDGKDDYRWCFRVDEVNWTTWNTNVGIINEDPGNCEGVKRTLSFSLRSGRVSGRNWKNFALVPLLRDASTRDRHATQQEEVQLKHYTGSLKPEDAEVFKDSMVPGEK

T1 sequence (Q8NER1 whole entry): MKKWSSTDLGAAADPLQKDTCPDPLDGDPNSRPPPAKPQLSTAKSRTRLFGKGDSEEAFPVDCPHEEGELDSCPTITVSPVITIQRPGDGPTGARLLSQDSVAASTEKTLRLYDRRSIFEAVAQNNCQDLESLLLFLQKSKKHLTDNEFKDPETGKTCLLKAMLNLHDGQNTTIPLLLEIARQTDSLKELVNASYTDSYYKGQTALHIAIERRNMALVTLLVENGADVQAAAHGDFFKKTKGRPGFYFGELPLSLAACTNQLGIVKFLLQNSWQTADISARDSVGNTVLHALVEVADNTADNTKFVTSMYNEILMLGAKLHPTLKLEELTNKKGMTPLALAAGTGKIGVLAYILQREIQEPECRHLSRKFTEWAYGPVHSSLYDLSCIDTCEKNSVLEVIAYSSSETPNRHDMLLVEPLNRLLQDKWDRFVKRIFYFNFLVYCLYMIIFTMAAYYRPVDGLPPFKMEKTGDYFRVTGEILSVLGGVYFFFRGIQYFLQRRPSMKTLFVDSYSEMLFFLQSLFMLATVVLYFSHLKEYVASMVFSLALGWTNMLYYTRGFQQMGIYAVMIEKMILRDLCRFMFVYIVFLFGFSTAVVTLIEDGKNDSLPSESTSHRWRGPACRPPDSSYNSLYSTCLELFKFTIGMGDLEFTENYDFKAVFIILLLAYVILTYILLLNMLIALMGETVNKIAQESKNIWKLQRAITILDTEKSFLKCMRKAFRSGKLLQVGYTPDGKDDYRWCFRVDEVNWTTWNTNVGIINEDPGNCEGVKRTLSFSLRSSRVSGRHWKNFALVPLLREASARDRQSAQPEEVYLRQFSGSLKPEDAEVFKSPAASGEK

C=C(C)[C@]12C[C@@H](C)[C@@]34O[C@](Cc5ccccc5)(O[C@@H]1[C@@H]3C=C(COC(=O)Cc1ccc(O)c(OC)c1)C[C@]1(O)C(=O)C(C)=CC41)O2 (single isomer, unassigned) [RESINIFERATOXIN]
EC50 [1]: 1.9 nM
Efficacy [2]: 116%
Ki [3]: 0.48 nM

C=C(C)[C@]12C[C@@H](C)[C@@]34OC(Cc5ccccc5)(O[C@@H]1[C@@H]3C=C(COC(=O)Cc1ccc(O)c(OC)c1I)C[C@]1(O)C(=O)C(C)=C[C@@H]41)O2
IC50 [1]: 27 nM
Ki [3]: 1.4 nM

C=C(C)[C@]12C[C@@H](C)[C@@]34O[C@](Cc5ccccc5)(O[C@@H]1[C@@H]3C=C(COC(=O)Cc1cc(OC)c(O)cc1I)C[C@]1(O)C(=O)C(C)=C[C@@H]41)O2
EC50 [1]: 130 nM
Efficacy [2]: 50%
Ki [3]: 0.71 nM
Efficacy [4]: 92%

C=C(C)[C@]12C[C@@H](C)[C@@]34O[C@](Cc5ccccc5)(O[C@@H]1[C@@H]3C=C(COC(=O)Cc1cc(OC)c(OC(C)=O)cc1I)C[C@]1(O)C(=O)C(C)=C[C@@H]41)O2
EC50 [1]: 935 nM
Efficacy [2]: 75%
Ki [3]: 1.46 nM
